{"source": "patent US8410124B2", "about": "“Deuterated etravirine” (Concert Pharmaceuticals Inc., priority 2007, dated 2013)", "origin": "cited, not measured here", "key": {"[1]": {"conditions": "over a 2 hour period"}, "[2]": {"conditions": "humans"}}}
{"smiles": "Cc1cc(C#N)cc(C)c1Oc1nc(Nc2ccc(C#N)cc2)nc(N)c1Br", "note": "[etravirine, 4-(6-amino-5-bromo-2-(4-cyanophenylamino)pyrimidin-4-yloxy)-3,5-dimethylbenzonitrile]", "values": [{"measurement": "degradation in human liver microsomes", "setting": "[1]", "result": 15, "unit": "%"}, {"measurement": "excreted largely intact in the feces", "setting": "[2]; feces", "result": "> 85", "unit": "%"}, {"measurement": "excreted largely intact in the urine", "setting": "[2]; urine", "result": "< 1", "unit": "%"}, {"measurement": "most common adverse effects of the combined regimen", "setting": "healthy volunteers, etravirine in combination with lopinavir/ritonavir", "result": "diarrhea and headache"}, {"measurement": "safety and tolerability profile", "setting": "phase IIb trials with treatment-experienced patients", "result": "generally comparable with placebo"}, {"measurement": "mild side effects", "setting": "trials with HIV-1-infected patients dosed with etravirine", "result": "diarrhea, headache, abdominal pain, acute tonsillitis, flatulence, gastroenteritis, hot flushes, insomnia, intercostal pain, pruritus, somnolence, tachycardia and vomiting"}]}
